# Assays:
# [1] = target: PIM2 (Homo sapiens, UniProt Q9P1W9); assay: Pim 2 AlphaScreen assay (high ATP); assay type: biochemical; conditions: read-out: Pim2 IC50
# How it was run: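 IC50 values rest on detection of phosphorylated Bad peptide: after a ~2 h kinase reaction, an EDTA stop buffer containing anti-phospho Ser/Thr antibody, Protein A and streptavidin AlphaScreen beads was added and read after overnight dark incubation. ATP was high (11-125× Km), with 2.5% DMSO in pH 7.5 Hepes buffer containing MgCl2, BSA, Tween-20 and DTT.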
# [2] = target: FGFR3 kinase (Homo sapiens, UniProt P22607); assay: FGFR3 kinase inhibition assay (LanthaScreen TR-FRET); assay type: biochemical
# [3] = tested on: KMS11 (human myeloma cell line); assay: Cell proliferation assay (CellTiter-Glo), KMS11; assay type: cell-based; conditions: Homo sapiens, KMS-11; KMS11 cells, cell proliferation; read-out: KMS11-Luc EC50
# How it was run: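 EC50 derived from CellTiter-Glo luminescence after 3-day exposure at 37° C. Compound was diluted to 2× in medium and added to an equal volume of cells. KMS11 myeloma cells were plated on assay day at 2000/well in IMDM with 10% FBS and sodium pyruvate.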
# [4] = target: PDGFRaV561D kinase (Homo sapiens, UniProt P16234, V561D); assay: PDGFRaV561D kinase inhibition assay (LanthaScreen TR-FRET); assay type: biochemical; conditions: read-out: PDGFRa IC50
# How it was run: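 TR-FRET end-point assay with 4.4 nM PDGFRa V561D kinase, 50 nM polyEAY, 10 mM Mn and 2 μM ATP (f.c.) in Tris pH 7.4 buffer. After 1 h, EDTA stop and Tb-labeled P-20 antibody added; read after 45 min in the dark.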
# PDGFRaV561D kinase, sequence (P16234 24-1089 V561D): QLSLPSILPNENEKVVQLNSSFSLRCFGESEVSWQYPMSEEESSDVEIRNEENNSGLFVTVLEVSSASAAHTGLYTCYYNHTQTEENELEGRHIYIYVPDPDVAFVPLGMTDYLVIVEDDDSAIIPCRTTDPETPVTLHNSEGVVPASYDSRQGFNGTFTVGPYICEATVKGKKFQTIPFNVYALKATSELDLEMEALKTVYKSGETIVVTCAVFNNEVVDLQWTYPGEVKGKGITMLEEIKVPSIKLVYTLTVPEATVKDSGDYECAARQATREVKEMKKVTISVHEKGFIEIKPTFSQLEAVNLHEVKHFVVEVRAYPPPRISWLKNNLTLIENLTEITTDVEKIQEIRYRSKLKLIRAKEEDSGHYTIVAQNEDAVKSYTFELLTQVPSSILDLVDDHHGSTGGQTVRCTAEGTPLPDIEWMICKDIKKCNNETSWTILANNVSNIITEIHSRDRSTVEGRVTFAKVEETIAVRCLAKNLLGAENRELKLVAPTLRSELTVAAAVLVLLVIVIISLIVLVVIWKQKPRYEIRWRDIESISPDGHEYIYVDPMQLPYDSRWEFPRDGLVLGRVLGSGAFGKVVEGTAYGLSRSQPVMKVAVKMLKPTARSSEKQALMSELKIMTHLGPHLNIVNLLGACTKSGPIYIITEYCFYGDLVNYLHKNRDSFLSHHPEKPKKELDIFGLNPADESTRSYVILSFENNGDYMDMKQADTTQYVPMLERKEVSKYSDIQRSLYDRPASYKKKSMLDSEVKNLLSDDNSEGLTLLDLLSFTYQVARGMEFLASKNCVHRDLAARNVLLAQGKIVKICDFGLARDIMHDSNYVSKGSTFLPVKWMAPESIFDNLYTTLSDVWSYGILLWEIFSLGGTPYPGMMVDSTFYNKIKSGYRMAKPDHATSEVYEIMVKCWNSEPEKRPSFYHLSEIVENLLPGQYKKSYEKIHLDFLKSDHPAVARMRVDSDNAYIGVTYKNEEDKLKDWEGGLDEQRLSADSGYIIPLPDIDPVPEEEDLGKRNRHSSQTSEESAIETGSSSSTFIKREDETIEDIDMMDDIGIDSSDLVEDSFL
# PIM2, sequence (Q9P1W9 whole entry): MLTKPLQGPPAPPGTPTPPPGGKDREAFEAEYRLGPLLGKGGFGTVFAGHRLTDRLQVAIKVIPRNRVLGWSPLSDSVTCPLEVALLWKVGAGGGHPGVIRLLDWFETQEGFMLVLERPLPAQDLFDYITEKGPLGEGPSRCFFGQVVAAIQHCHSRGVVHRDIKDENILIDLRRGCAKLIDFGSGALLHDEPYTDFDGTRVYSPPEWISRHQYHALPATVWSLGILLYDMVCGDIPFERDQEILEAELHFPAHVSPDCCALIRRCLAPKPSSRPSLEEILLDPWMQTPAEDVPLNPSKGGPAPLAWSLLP
# FGFR3 kinase, sequence (P22607 23-806): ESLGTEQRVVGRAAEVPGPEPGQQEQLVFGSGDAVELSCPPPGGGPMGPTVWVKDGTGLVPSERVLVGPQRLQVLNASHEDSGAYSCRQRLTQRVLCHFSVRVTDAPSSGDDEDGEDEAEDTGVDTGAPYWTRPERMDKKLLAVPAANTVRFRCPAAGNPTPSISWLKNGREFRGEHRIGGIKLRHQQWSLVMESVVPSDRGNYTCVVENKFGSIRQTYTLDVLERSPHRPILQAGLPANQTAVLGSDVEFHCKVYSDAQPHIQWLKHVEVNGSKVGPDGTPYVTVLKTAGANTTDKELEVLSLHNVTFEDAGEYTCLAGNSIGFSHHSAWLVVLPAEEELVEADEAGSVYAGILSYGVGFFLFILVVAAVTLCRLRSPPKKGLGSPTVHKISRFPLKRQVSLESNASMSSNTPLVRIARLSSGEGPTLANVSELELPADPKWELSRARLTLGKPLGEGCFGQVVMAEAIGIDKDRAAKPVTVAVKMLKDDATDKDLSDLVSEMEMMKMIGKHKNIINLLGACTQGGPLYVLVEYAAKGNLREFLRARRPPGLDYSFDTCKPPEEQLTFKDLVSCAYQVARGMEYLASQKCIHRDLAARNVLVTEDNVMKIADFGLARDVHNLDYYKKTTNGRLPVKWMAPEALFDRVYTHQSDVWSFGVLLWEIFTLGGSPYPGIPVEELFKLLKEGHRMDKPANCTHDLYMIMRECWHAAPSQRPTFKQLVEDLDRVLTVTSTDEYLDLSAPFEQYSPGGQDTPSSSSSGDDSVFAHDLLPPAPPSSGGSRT
IC50 [1] [nM],IC50 [2] [nM],EC50 [3] [nM],IC50 [4] [nM],Compound
146,420,1190,150,"CC[C@H]1O[C@@H](c2ccncc2NC(=O)c2nc(-c3ccccc3)cnc2N)C[C@@H](N)[C@]1(C)O [Example 348, 3-amino-N-(4-((2R,4R,5S,6R)-4-amino-6-ethyl-5-hydroxy-5-methyltetrahydro-2H-pyran-2-yl)pyridin-3-yl)-6-phenylpyrazine-2-carboxamide]"
2740,6900,540,3300,"Nc1ncc(-c2ccccc2)nc1C(=O)Nc1cnccc1[C@@H]1C[C@H](N)[C@@H](O)[C@H](C2CC2)O1 [Example 349, 3-amino-N-(4-((2S,4S,5R,6S)-4-amino-6-cyclopropyl-5-hydroxytetrahydro-2H-pyran-2-yl)pyridin-3-yl)-6-phenylpyrazine-2-carboxamide]"
9,870,140,26,"CC(C)(C)[C@H]1O[C@@H](c2ccncc2NC(=O)c2nc(-c3ccccc3)cnc2N)C[C@@H](N)[C@@H]1O [Example 354, 3-amino-N-(4-((2R,4R,5S,6R)-4-amino-6-tert-butyl-5-hydroxytetrahydro-2H-pyran-2-yl)pyridin-3-yl)-6-phenylpyrazine-2-carboxamide]"
8750,> 10000,210,9100,"CC(C)(C)[C@@H]1O[C@H](c2ccncc2NC(=O)c2nc(-c3ccccc3)cnc2N)C[C@H](N)[C@H]1O [Example 355, 3-amino-N-(4-((2S,4S,5R,6S)-4-amino-6-tert-butyl-5-hydroxytetrahydro-2H-pyran-2-yl)pyridin-3-yl)-6-phenylpyrazine-2-carboxamide]"
28.1,220,180,53,"CC(C)[C@H]1O[C@@H](c2ccncc2NC(=O)c2nc(-c3ccccc3)cnc2N)C[C@@H](N)[C@@H]1O [Example 356, 3-amino-N-(4-((2R,4R,5S,6R)-4-amino-5-hydroxy-6-isopropyltetrahydro-2H-pyran-2-yl)pyridin-3-yl)-6-phenylpyrazine-2-carboxamide]"

# — patent publication US20130109682A1, “CYCLIC ETHER COMPOUNDS USEFUL AS KINASE INHIBITORS” (NOVARTIS AG, priority 2010, published 2013)
